According to the supplement of paper PMC8671470:

Assays:
Settings in all cases: 72 h
LAMA-84 = tested on: LAMA-84
Outline: (§1)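 Fifteen myeloid leukaemia cell lines were seeded in RPMI 1640 at a density titrated to the linear growth range. Each line went into 384-well plates with compounds acoustically pre-printed at five tenfold doses from 1 to 10,000 nM, in duplicate, and was incubated for 72 h at 37 °C with 5% CO2. Luminescent ATP viability was normalised to vehicle and to a positive control at 10 µM. The IC50 came from four-parameter log-logistic dose–response fits.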

THP-1 = tested on: THP-1
Outline: as §1

KG-1 = tested on: KG-1
Outline: as §1

ML-2 = tested on: ML-2
Outline: as §1

NOMO-1 = tested on: NOMO-1
Outline: as §1

BV-173 = tested on: BV-173
Outline: as §1

K-562 = tested on: K-562
Outline: as §1

Mono-Mac-6 = tested on: Mono-Mac-6
Outline: as §1

KCL-22 = tested on: KCL-22
Outline: as §1

MV4-11 = tested on: MV4-11
Outline: as §1

SHI-1 = tested on: SHI-1
Outline: as §1

KU-812 = tested on: KU-812
Outline: as §1

HL-60 = tested on: HL-60
Outline: as §1

HEL = tested on: HEL
Outline: as §1

MOLM-13 = tested on: MOLM-13
Outline: as §1

Compound | IC50 (cell viability) (LAMA-84) [µM] | IC50 (cell viability) (THP-1) [µM] | IC50 (cell viability) (KG-1) [µM] | IC50 (cell viability) (ML-2) [µM] | IC50 (cell viability) (NOMO-1) [µM] | IC50 (cell viability) (BV-173) [µM] | IC50 (cell viability) (K-562) [µM] | IC50 (cell viability) (Mono-Mac-6) [µM] | IC50 (cell viability) (KCL-22) [µM] | IC50 (cell viability) (MV4-11) [µM] | IC50 (cell viability) (SHI-1) [µM] | IC50 (cell viability) (KU-812) [µM] | IC50 (cell viability) (HL-60) [µM] | IC50 (cell viability) (HEL) [µM] | IC50 (cell viability) (MOLM-13) [µM]
C1CCc2nnc(C34CC5CC(CC(C5)C3)C4)n2CC1 [MERCK-544] | > 10 | > 10 | > 10 | > 10 | > 10 | > 10 | > 10 | > 10 | > 10 | > 10 | > 10 | > 10 | > 10 | > 10 | > 10
CC(Cc1ccc(O)c(O)c1)C(C)Cc1ccc(O)c(O)c1 (stereo not given) [Masoprocol] | > 10 | > 10 | 6.63 | 3.42 | > 10 | 3.66 | > 10 | 2.08 | > 10 | 3.8 | > 10 | > 10 | 3.15 | > 10 | > 10
CC(C(=O)O)C(=O)O [Methylmalonate] | > 10 | > 10 | > 10 | > 10 | > 10 | > 10 | > 10 | > 10 | > 10 | > 10 | > 10 | > 10 | > 10 | > 10 | > 10
COc1c(C)c2c(c(O)c1C/C=C(\C)CCC(=O)O)C(=O)OC2 [Mycophenolic acid] | 0.771 | > 10 | 2.34 | 0.333 | 2.55 | 0.679 | 0.561 | 1.83 | 0.289 | 0.507 | 2.52 | 0.954 | 0.652 | 1.01 | 0.183
C1CCC(C(CC2CCCCN2)C2CCCCC2)CC1.O=C(O)/C=C\C(=O)O (stereo not given) [Perhexiline] | 4.23 | 2.55 | 3.23 | 3.43 | 6.5 | 3.34 | 3.35 | 3.55 | 3.63 | 2.73 | 3.28 | 3.99 | 2.85 | 3.23 | 2.66
OCCN1CCN(CCCN2c3ccccc3Sc3ccc(Cl)cc32)CC1 [Perphenazine] | 9.39 | > 10 | 8.85 | 7.38 | > 10 | 5.91 | 2.87 | > 10 | 8.23 | 3.54 | > 10 | 6.71 | 5.06 | > 10 | 5.77
C=CCc1ccc2c(c1O)C(=O)c1ccccc1C2=O [R162] | > 10 | > 10 | > 10 | > 10 | > 10 | > 10 | > 10 | > 10 | > 10 | > 10 | > 10 | > 10 | > 10 | > 10 | > 10
O=C(c1ccc(OCCN2CCCCC2)cc1)c1c(-c2ccc(O)cc2)sc2cc(O)ccc12 [Raloxifene] | > 10 | > 10 | > 10 | > 10 | > 10 | > 10 | > 10 | > 10 | > 10 | > 10 | > 10 | > 10 | > 10 | > 10 | > 10
NC(=O)c1ncn([C@@H]2O[C@H](CO)[C@@H](O)[C@H]2O)n1 [Ribavirin] | > 10 | > 10 | > 10 | > 10 | > 10 | > 10 | > 10 | > 10 | > 10 | > 10 | > 10 | > 10 | > 10 | > 10 | > 10
Nc1ncnc2c1ncn2[C@@H]1O[C@H](CSCC[C@H](N)C(=O)O)[C@@H](O)[C@H]1O [S-Adenosyl Homocysteine] | > 10 | > 10 | > 10 | > 10 | > 10 | > 10 | > 10 | > 10 | > 10 | > 10 | > 10 | > 10 | > 10 | > 10 | > 10
CCCc1nn(C)c2c(O)nc(-c3cc(S(=O)(=O)N4CCN(C)CC4)ccc3OCC)nc12 [Sildenafil] | > 10 | > 10 | > 10 | > 10 | > 10 | > 10 | > 10 | > 10 | > 10 | > 10 | > 10 | > 10 | > 10 | > 10 | > 10
Cc1coc2c1C(=O)C(=O)c1c-2ccc2c(C)cccc12 [Tanshinone I] | > 10 | > 10 | > 10 | > 10 | > 10 | > 10 | > 10 | > 10 | > 10 | > 10 | > 10 | > 10 | > 10 | > 10 | > 10
CCOC(=O)N1c2ccc(C(F)(F)F)cc2[C@@H](N(Cc2cc(C(F)(F)F)cc(C(F)(F)F)c2)C(=O)OC)C[C@H]1CC [Torcetrapib] | > 10 | > 10 | 9.96 | 7.83 | > 10 | 0.652 | > 10 | > 10 | > 10 | 7.03 | > 10 | > 10 | > 10 | > 10 | > 10
Oc1cc(Cl)ccc1Oc1ccc(Cl)cc1Cl [Triclosan] | > 10 | > 10 | > 10 | > 10 | > 10 | > 10 | > 10 | > 10 | > 10 | > 10 | > 10 | > 10 | > 10 | > 10 | > 10
COc1cc2c(NC3CCN(C)CC3)nc(N3CCCN(C)CC3)nc2cc1OCCCN(C)C [UNC0224] | > 10 | > 10 | > 10 | > 10 | > 10 | > 10 | > 10 | > 10 | > 10 | > 10 | > 10 | > 10 | > 10 | > 10 | > 10
CC(C)C[C@H](NC(=O)[C@@H](O)[C@H](N)Cc1ccccc1)C(=O)O [Ubenimex] | > 10 | > 10 | > 10 | > 10 | > 10 | > 10 | > 10 | > 10 | > 10 | > 10 | > 10 | > 10 | > 10 | > 10 | > 10
O=P(O)(O)C(O)(Cn1ccnc1)P(=O)(O)O [Zoledronic acid] | > 10 | > 10 | > 10 | > 10 | > 10 | > 10 | > 10 | > 10 | > 10 | > 10 | > 10 | > 10 | > 10 | > 10 | > 10
